Consider one molecule from patent US20250345446A1 (Draupnir Bio ApS, priority 2022, published 2025).

Usually Kd stands for the free concentration of one partner at which half of the binding sites on the other are occupied at equilibrium, for simple one-to-one binding.

One test relates to TNFa plasma levels. The test can be described thus: Mouse model of LPS induced acute systemic inflammation, plasma TNFa. The class given is in vivo. To be noted: 10 or 30 mg/kg, 1 hour after LPS, C57BL/6J mice, p<0.0001 (one-way ANOVA). As to the method:
Degrader in vivo efficacy was investigated in a mouse model of lipopolysaccaride (LPS) induced acute systemic inflammation. Female C57BL/6J mice, 8 weeks of age were used in this model, and LPS was dosed as IP injection at a final concentration of 0.5 mg/kg in PBS at 10 ml/kg. 30 min to 3 hours prior LPS administration, animals were dosed with test compound (100-0.3 mg/kg/IP), dexamethasone (Dex) control (0.5 mg/kg/PO) or vehicle control (IP). Untreated (normal) animals were included as control for LPS induced TNFa expression. One hour post LPS administration, blood samples were collected and TNFa level was assessed by Cytometric Bead Array assay.

Test [1] concerns the target T1, soluble ectodomain of sortilin-6his (Homo sapiens, UniProt Q99523, V650M).
T1 construct: the soluble ectodomain of sortilin-6his is measured by microscale thermophoresis (MST)
Nature of the test: MST binding to soluble ectodomain of sortilin-6his. The following applies: Table 4; small molecule bifunctional compounds; MST; read-out: KD score, binding to sortilin (Kd).

SMILES strings stand for the structures.

T1 sequence (Q99523 with tags, fused parts or gaps V650M): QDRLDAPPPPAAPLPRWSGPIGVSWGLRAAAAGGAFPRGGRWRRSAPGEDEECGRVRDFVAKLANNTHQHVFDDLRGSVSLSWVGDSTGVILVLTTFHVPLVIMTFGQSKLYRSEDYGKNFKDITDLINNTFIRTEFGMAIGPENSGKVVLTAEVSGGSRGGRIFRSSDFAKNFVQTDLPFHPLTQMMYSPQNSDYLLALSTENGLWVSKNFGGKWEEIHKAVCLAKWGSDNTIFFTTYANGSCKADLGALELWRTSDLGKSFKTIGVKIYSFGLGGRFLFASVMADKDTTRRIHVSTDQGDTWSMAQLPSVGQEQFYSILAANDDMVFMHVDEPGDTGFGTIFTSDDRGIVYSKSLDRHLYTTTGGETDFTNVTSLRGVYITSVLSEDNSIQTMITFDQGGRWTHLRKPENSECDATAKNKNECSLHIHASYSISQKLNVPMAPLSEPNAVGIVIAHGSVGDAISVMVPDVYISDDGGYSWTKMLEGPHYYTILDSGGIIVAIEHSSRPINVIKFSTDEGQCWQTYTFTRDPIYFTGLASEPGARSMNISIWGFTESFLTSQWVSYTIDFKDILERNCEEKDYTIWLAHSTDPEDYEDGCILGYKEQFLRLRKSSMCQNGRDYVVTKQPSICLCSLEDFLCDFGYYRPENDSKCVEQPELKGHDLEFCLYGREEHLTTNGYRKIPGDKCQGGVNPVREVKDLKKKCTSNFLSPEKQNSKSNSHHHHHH

Consider `Cc1nc2cc(F)c(-c3cnc(N4CCN(C(=O)Cn5cc(COCCOCCOCC(=O)N6CCC(Oc7cccc(Oc8ccc(C(=O)N[C@@H](CCC(C)(C)C)C(=O)O)cn8)c7)CC6)nn5)[C@H](C)C4)nc3)nc2c(N[C@H](C)c2cc(C#N)ccc2F)c1Cl` [BF094, (2S)-2-[[6-[3-[[1-[2-[2-[2-[[1-[2-[(2R)-4-[5-[7-chloro-8-[[(1R)-1-(5-cyano-2-fluoro-phenyl)ethyl]amino]-3-fluoro-6-methyl-1,5-naphthyridin-2-yl]pyrimidin-2-yl]-2-methyl-piperazin-1-yl]-2-oxo-ethyl]triazol-4-yl]methoxy]ethoxy]ethoxy]acetyl]-4-piperidyl]oxy]phenoxy]pyridine-3-carbonyl]amino]-5,5-dimethyl-hexanoic acid], for which the “plasma TNFa compared to vehicle group” value in the test with TNFa plasma levels is listed as “significant decrease”. For the same molecule, the dissociation constant (Kd) in test [1] lay in the range of 1 to 10 nM.
